Results reported in paper PMC11510591, “In Vitro Evaluation of Pharmacokinetic Properties of Selected Dual COX-2 and 5-LOX Inhibitors” (Pharmaceuticals, 2024).
Read-outs that look alike come from different tables or passages of the source.

Experiments:
[1] = system: CD-1 mouse liver microsomes; conditions: pH 7.4; for Peak Area, t0: 0 min; for Peak Area, t: 30 min
Procedure: Microsomal stability (and thus susceptibility to metabolism) was tested using microsomes derived from CD-1 mouse liver. According to the applied protocol, both phases of metabolism were activated by the addition of cofactors NADPH and UDP-GlcUA. […] Stock solutions of all tested compounds (5 mM DMSO solutions) were diluted with 0.1 M potassium phosphate buffer pH 7.4 to obtain 0.1 mM solutions, which were further incubated according to the protocol. In order to activate both the 1st and 2nd phases of metabolism, NADPH and UDP-GlcUA were used as cofactors. Tested compounds were incubated at 37 °C for 30 min, and the incubation was quenched immediately after the addition of cofactors (t0) and after the defined incubation time (t) by mixing 100 µL of corresponding incubation mixtures with 200 µL of cold acetonitrile. All compounds were tested in duplicates, and their concentrations were determined using the HPLC-MS/MS method (Section 3.7.1).
The HPLC-MS/MS analysis was performed on the UHPLC chromatograph ACELLA (Thermo Fisher Scientific Inc., Madison, WI, USA), coupled to a triple quadrupole mass spectrometer TSQ Quantum Access MAX (Thermo Fisher Scientific Inc., Madison, WI, USA) with a heated electrospray ionization (HESI) interface. The column used was Zorbax Extend C18 (150 mm × 4.6 mm, 5 µm; Agilent Technologies), which was thermostated at 25 °C. The mobile phase consisted of acetonitrile and 0.1% formic acid (60:40, v/v), with a flow rate of 500 µL/min. The injection volume was 10 µL.

[2] = PAMPA test (hexadecane membrane), passive gastrointestinal absorption; format: in vitro ADME; conditions: donor pH 5.5, acceptor pH 7.4, 5 h, room temperature; for Papp at 5 h, 0.05 mM: PAMPA, read-out: Pe (effective passive permeability coefficient)
Procedure: The PAMPA test uses a 96-well plate coated with an impregnated filter material, forming an artificial membrane that separates donor and acceptor compartments. Egg lecithin in dodecane is commonly used to simulate membrane lipids, while hexadecane is effective for mimicking gastrointestinal membranes. […] Therefore, hexadecane dissolved in hexane was chosen in this study.
The phosphate buffer solution was prepared by dissolving 0.5292 g of NaH2PO4 × H2O and 0.0234 g of Na2HPO4 in purified water (200 mL). The phosphate buffer was divided into two portions, and the pH was adjusted to pH 5.5 and pH 7.4 using o-phosphoric acid. The donor solutions were prepared by diluting the stock solutions (5 mM DMSO solutions) with the buffer pH 5.5 to obtain the final concentration of 0.05 mM (the DMSO concentration in the donor solutions was 1%), while the acceptor solution was prepared as a 1% DMSO solution in the buffer pH 7.4. The use of DMSO as a cosolvent in PAMPA is necessary in cases of low-soluble compounds. It is usually used in concentrations up to 5% [25, 55, 56, 57].
The PAMPA test was performed according to the literature procedure using a 96-well microtiter polycarbonate filter plate (Merck Millipore, Carrigtwohill, Ireland) that was impregnated with 15 µL of a hexadecane/hexane (5:95, v/v) solution [52]. Donor solutions (300 µL per well) were transferred into each well of the donor plate. Acceptor solution was transferred into each well (300 µL per well) of the acceptor plate (MSSACCEPTOR, Millipore, Burlington, MA, USA) and covered by the donor plate to create a PAMPA sandwich. The system was incubated at room temperature for 5 h at a vibratory mixer. After incubation, the PAMPA sandwich was dissociated, and concentrations of all tested compounds in each well, as well as in the starting solutions, were determined using the HPLC method (Section 3.3.1).
The concentrations of tested compounds in the starting solutions, as well as in the donor and acceptor sections after incubation, were determined by the HPLC method on the Dionex Ultimate 3000 (Thermo Fisher Scientific, Waltham, MA, USA) equipped with a quaternary pump, autosampler, and DAD detector using a ZORBAX Eclipse XDB-C18 4.6 × 150 mm, 5 µm column (Agilent Technologies, Santa Clara, CA, USA).
R represents the retention, which is defined as the fraction of the tested compound retained in the PAMPA membrane (filters and plate materials), CD(t) is the concentration of a tested compound in a donor compartment after incubation time t, CA(t) is the concentration of a tested compound in an acceptor compartment after incubation time t, while CD(0) represents the concentration of a tested compound in a donor compartment at the beginning of the incubation (starting solution).

[3] = BMC, Brij 35 mobile phase pH 5.5, 36.5 °C, C18 column
Procedure: BMC was performed using polyoxyethylene lauryl ether (Brij 35) as the most frequently used surfactant in this method. All other parameters (pH, temperature, and salinity) were set to achieve physiological conditions. The retention of compounds is mostly influenced by their lipophilicity and their interactions with both the modified stationary phase and the micelles in the mobile phase. Therefore, the elution behavior is determined by the combined effects of micelles, the stationary phase, and water. An important factor for this method is finding the optimal balance between organic solvent and aqueous phase.
BMC was performed on an Agilent 1200 Series (Agilent Technologies, Santa Clara, CA, USA) supplied with a binary pump, manual injector (20 µL), and DAD detector (190–950 nm) using a C18 column (ZORBAX Extend-C18 Analytical 4.6 × 150 mm; 5 µm, Agilent Technologies, Santa Clara, CA, USA). Mobile phase was a combination of aqueous phase (40 mmol/L solution of Brij 35 in 7 mmol/L Na2HPO4) and acetonitrile (70:30, v/v), and the mobile phase pH was adjusted to 5.5 using o-phosphoric acid. […] Retention factors (k) were calculated according to Equation (1). Column dead time (t0) was the retention time of DMSO at 220 nm, while tR was the retention time of a tested compound. k = (tR − t0)/t0(1)

[4] = biological target: T1, human serum albumin (HSA) (Homo sapiens, UniProt P02768); assay: Differential pulse voltammetry (DPV), interaction with HSA; format: binding; conditions: compound 0.05 mmol/L, PBS pH 7.4, HSA 0.05–10 μmol/L
T1 construct: purchased Sigma-Aldrich
Procedure: The electrochemical oxidation of the tested compounds at a concentration of 0.05 mmol/L in PBS buffer pH 7.4 was investigated by differential pulse voltammetry (DPV). […] For all tested compounds, a preliminary study of the interaction with HSA was performed at a concentration of 0.05 mmol/L and different HSA concentrations (0.05–10 μmol/L) using DPV. […] It has been reported that the shift in the potential of an electroactive ligand is a suitable criterion to determine the mode of the macromolecule–ligand interaction. In this context, a positive shift in potential is an indication of hydrophobic interaction of investigated compounds with HSA [34]. The decrease in peak current could be due to the formation of a non-electroactive supramolecular compound by the drug–protein interaction, which reduces the concentration of free drug.
The voltammetric measurements were carried out with the µAutolab analyzer (EcoChemie, Utrecht, The Netherlands). A three-electrode system with a GCE working electrode, an Ag/AgCl reference electrode, and a Pt-auxiliary electrode was used. Before each experiment, the GCE was manually polished with an aqueous slurry of Al2O3 powder (particle size of 0.05 μm) on a smooth polishing pad, sonicated in deionized water, and then treated in absolute ethanol. Phosphate buffer saline (PBS) pH 7.4 was used as the supporting electrolyte. The experiments were carried out with deaerated PBS buffer. A stock solution of HSA in PBS at a concentration of 0.1 mmol/L was used. […] The interaction between tested compounds and HSA was examined in PBS solution, using solutions of tested compounds in a concentration of 0.05 mmol/L and HSA solution with a concentration in the range of 0.05–10 μmol/L.
The percentage of free compound (Equation (4)) was calculated from the ratio of the current intensity (IINT) for a given compound concentration (0.05 mmol/L) in the presence of albumin to the signal obtained at the same compound concentration only in the presence of the supporting electrolyte (PBS buffer) (IC).

[5] = biological target: T1, human serum albumin (HSA); format: binding; conditions: CHIRALPAK HSA column, ammonium acetate buffer pH 7.0/acetonitrile 85:15, 25 °C
Procedure: Recently, interactions of many newly synthesized structurally diverse compounds with HSA were successfully studied using this technique. The degree of binding of the tested compounds to HSA was evaluated based on their retention behavior on the stationary phase modified with HSA. The logarithmic values of retention factors (logk) were used to evaluate indirectly and compare the drug–HSA interaction.
HPAC analysis was performed on an Agilent 1200 Series chromatograph (Agilent Technologies, Santa Clara, CA, USA). […] The mobile phase consisted of ammonium acetate buffer (pH 7.0; 0.01 M) and acetonitrile (85:15, v/v). The flow rate was 0.6 mL/min, the temperature was set to 25 °C, and the detection of tested compounds was carried out at 283 nm. Tested compounds were dissolved in DMSO (at a concentration of 1 mg/mL), further diluted with the mobile phase to a final concentration of 0.05 mg/mL, and analyzed in triplicate. The HPAC conditions were selected not only with the aim of achieving satisfactory retention characteristics of all synthesized compounds but also taking into account recommendations of a column manufacturer. Retention factors were calculated using Equation (1), where t0 (column dead time) was the retention time of DMSO at 220 nm.

T1 sequence (P02768 25-609): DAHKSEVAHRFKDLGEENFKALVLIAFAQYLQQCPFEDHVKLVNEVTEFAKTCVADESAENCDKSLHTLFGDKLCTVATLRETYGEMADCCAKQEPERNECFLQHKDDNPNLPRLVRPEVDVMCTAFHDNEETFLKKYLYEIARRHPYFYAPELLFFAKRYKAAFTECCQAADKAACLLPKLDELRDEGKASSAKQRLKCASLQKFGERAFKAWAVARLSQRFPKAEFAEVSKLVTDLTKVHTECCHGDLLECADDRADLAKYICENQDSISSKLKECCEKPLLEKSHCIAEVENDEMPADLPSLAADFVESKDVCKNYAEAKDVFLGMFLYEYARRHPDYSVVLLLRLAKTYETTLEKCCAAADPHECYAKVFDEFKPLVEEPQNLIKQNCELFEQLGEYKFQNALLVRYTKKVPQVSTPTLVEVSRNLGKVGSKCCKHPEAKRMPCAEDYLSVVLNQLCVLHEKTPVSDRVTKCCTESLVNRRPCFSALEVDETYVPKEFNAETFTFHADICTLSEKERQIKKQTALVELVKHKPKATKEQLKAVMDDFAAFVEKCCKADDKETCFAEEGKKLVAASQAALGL

Peak Area, t0 [1]	Peak Area, t [1]	Papp at 5 h, 0.05 mM [2] [×10⁻⁶ cm/s]	–logPe [2]	–logPe ([2]; listed as diclofenac)	Retention factors (k) [3]	Retention factors (k) ([3]; listed as diclofenac)	–logPe ([2]; listed as flurbiprofen)	% Bound Drug [4]	ΔE, DPV peak potential shift after interaction with HSA [4]	Retention Factors (logk) [5]	Retention Factors (logk) ([5]; listed as flurbiprofen)	–logPe ([2]; listed as indomethacin)	SMILES	–logPe ([2]; listed as ibuprofen)
126.2 ± 2.8 ×10^3	99.7 ± 5.3 ×10^3	> 400	<3.40	≤ 3.46	8.25 ± 0.00	8.25	–	–	–	–	–	–	O=C(O)Cc1ccccc1Nc1c(Cl)cccc1Cl [Diclofenac, diclofenac]	–
–	–	> 400	<3.40	–	7.14 ± 0.02	–	≤ 3.46	Electrochemically inactive	Electrochemically inactive	11.03 ± 0.02	11.03	–	CC(C(=O)O)c1ccc(-c2ccccc2)c(F)c1 (stereo not shown) [Flurbiprofen, flurbiprofen]	–
241.9 ± 2.5 ×10^3	206.9 ± 9.0 ×10^3	386	3.41 ± 0.05	–	10.20 ± 0.03	–	–	–	–	–	–	≤ 3.46	COc1ccc2c(c1)c(CC(=O)O)c(C)n2C(=O)c1ccc(Cl)cc1 [Indomethacin, indomethacin, reference compound]	–

SMILES	Peak Area, t0 [1]	Peak Area, t [1]	Papp at 5 h, 0.05 mM [2] [×10⁻⁶ cm/s]	–logPe [2]	–logPe ([2]; listed as diclofenac)	Retention factors (k) [3]	Retention factors (k) ([3]; listed as diclofenac)	–logPe ([2]; listed as flurbiprofen)	% Bound Drug [4]	ΔE, DPV peak potential shift after interaction with HSA [4]	Retention Factors (logk) [5]	Retention Factors (logk) ([5]; listed as flurbiprofen)	–logPe ([2]; listed as indomethacin)	–logPe ([2]; listed as ibuprofen)
CC(C)Cc1ccc(C(C)C(=O)O)cc1 (stereo not shown) [Ibuprofen, ibuprofen]	–	–	> 400	<3.40	–	13.36 ± 0.00	–	–	–	–	–	–	–	≤ 3.46
